Results as given in ChEMBL document CHEMBL3885881, “DrugMatrix”.

Species on record: Rattus norvegicus
Assay: DrugMatrix - Regimen: Daily Repeat
Format: toxicity, organism-based, Sprague-Dawley
Set-up: regimen Daily Repeat, gender Male, age 6-8 weeks
Conditions: in vivo, po, route oral GAVAGE, […]; for ABSOLUTE BASOPHIL / BASOPHIL / ABSOLUTE EOSINOPHIL / ABSOLUTE LYMPHOCYTE / ABSOLUTE MONOCYTE / ABSOLUTE SEGMENTED NEUTROPHIL / EOSINOPHIL / ERYTHROCYTE COUNT / HEMATOCRIT / HEMOGLOBIN / LEUKOCYTE COUNT / LYMPHOCYTE / MEAN CORPUSCULAR HEMOGLOBIN / MEAN CORPUSCULAR HEMOGLOBIN CONCENTRATION / MEAN CORPUSCULAR VOLUME / MONOCYTE / NEUTROPHIL / NUCLEATED RED BLOOD CELLS / PLATELET COUNT: tissue Blood; for ALANINE AMINOTRANSFERASE / ALBUMIN / ALKALINE PHOSPHATASE / ASPARTATE AMINOTRANSFERASE / BLOOD UREA NITROGEN / CARBON DIOXIDE / CHLORIDE / CHOLESTEROL / CREATINE PHOSPHOKINASE / CREATININE / GLUCOSE / LACTATE DEHYDROGENASE / LIPASE / PHOSPHORUS / POTASSIUM / SODIUM / TOTAL BILIRUBIN / TOTAL PROTEIN / URIC ACID: tissue Plasma
[1] = 0 mg/kg, 72 h, dose level Control, time 3 day
[2] = 0 mg/kg, 120 h, dose level Control, time 5 day
[3] = 4 mg/kg, 72 h, dose level Low, time 3 day
[4] = 4 mg/kg, 120 h, dose level Low, time 5 day
[5] = 16 mg/kg, 72 h, dose level High, time 3 day
[6] = 16 mg/kg, 120 h, dose level High, time 5 day

O=NN(CCCl)C(=O)NCCCl [CARMUSTINE]
ABSOLUTE BASOPHIL [1]: 0 CELLS/uL | BASOPHIL [1]: 0% | ABSOLUTE BASOPHIL [2]: 0 CELLS/uL | ABSOLUTE EOSINOPHIL [2]: 0 CELLS/uL | ABSOLUTE LYMPHOCYTE [2]: 10431 CELLS/uL | ABSOLUTE MONOCYTE [2]: 90.5 CELLS/uL | ABSOLUTE SEGMENTED NEUTROPHIL [2]: 1111.83 CELLS/uL | BASOPHIL [2]: 0% | EOSINOPHIL [2]: 0% | ERYTHROCYTE COUNT [2]: 5.51 x10E6/uL | HEMATOCRIT [2]: 34.67% | HEMOGLOBIN [2]: 13.5 G/DL | LEUKOCYTE COUNT [2]: 11.63 x10E3/uL | LYMPHOCYTE [2]: 89.67% | MEAN CORPUSCULAR HEMOGLOBIN [2]: 24.5 pg | MEAN CORPUSCULAR HEMOGLOBIN CONCENTRATION [2]: 38.95 G/DL | MEAN CORPUSCULAR VOLUME [2]: 62.87 fL | MONOCYTE [2]: 0.67% | NEUTROPHIL [2]: 9.67% | NUCLEATED RED BLOOD CELLS [2]: 0 /100WBC | PLATELET COUNT [2]: 1052.67 x10E3/uL | ALANINE AMINOTRANSFERASE [2]: 54.67 u/L | ALBUMIN [2]: 4.15 G/DL | ALKALINE PHOSPHATASE [2]: 359.83 u/L | ASPARTATE AMINOTRANSFERASE [2]: 83 u/L | BLOOD UREA NITROGEN [2]: 13.5 mg/dL | CARBON DIOXIDE [2]: 27.17 mmol/L | CHLORIDE [2]: 98.5 MEQ/L | CHOLESTEROL [2]: 66.83 mg/dL | CREATINE PHOSPHOKINASE [2]: 256.17 u/L | CREATININE [2]: 0.19 mg/dL | GLUCOSE [2]: 171.33 mg/dL | LACTATE DEHYDROGENASE [2]: 91.5 u/L | LIPASE [2]: 10.5 u/L | PHOSPHORUS [2]: 8.72 mg/dL | POTASSIUM [2]: 5.34 MEQ/L | SODIUM [2]: 142.53 MEQ/L | TOTAL BILIRUBIN [2]: 0.2 mg/dL | TOTAL PROTEIN [2]: 6.05 G/DL | URIC ACID [2]: 0.6 mg/dL | ABSOLUTE BASOPHIL [3]: 0 CELLS/uL | ABSOLUTE EOSINOPHIL [3]: 0 CELLS/uL | ABSOLUTE LYMPHOCYTE [3]: 4876.33 CELLS/uL | ABSOLUTE MONOCYTE [3]: 48 CELLS/uL | ABSOLUTE SEGMENTED NEUTROPHIL [3]: 442.33 CELLS/uL | BASOPHIL [3]: 0% | EOSINOPHIL [3]: 0% | ERYTHROCYTE COUNT [3]: 5.3 x10E6/uL | HEMATOCRIT [3]: 33.47% | HEMOGLOBIN [3]: 13.1 G/DL | LEUKOCYTE COUNT [3]: 5.37 x10E3/uL | LYMPHOCYTE [3]: 90.67% | MEAN CORPUSCULAR HEMOGLOBIN [3]: 24.7 pg | MEAN CORPUSCULAR HEMOGLOBIN CONCENTRATION [3]: 39.13 G/DL | MEAN CORPUSCULAR VOLUME [3]: 63.13 fL | MONOCYTE [3]: 1% | NEUTROPHIL [3]: 8.33% | NUCLEATED RED BLOOD CELLS [3]: 0 /100WBC | PLATELET COUNT [3]: 1176.67 x10E3/uL | ALANINE AMINOTRANSFERASE [3]: 69.33 u/L | ALBUMIN [3]: 4.2 G/DL | ALKALINE PHOSPHATASE [3]: 310 u/L | ASPARTATE AMINOTRANSFERASE [3]: 124.67 u/L | BLOOD UREA NITROGEN [3]: 8.33 mg/dL | CARBON DIOXIDE [3]: 31.67 mmol/L | CHLORIDE [3]: 102 MEQ/L | CHOLESTEROL [3]: 70 mg/dL | CREATINE PHOSPHOKINASE [3]: 196 u/L | CREATININE [3]: 0.11 mg/dL | GLUCOSE [3]: 149.33 mg/dL | LACTATE DEHYDROGENASE [3]: 75.67 u/L | LIPASE [3]: 45 u/L | PHOSPHORUS [3]: 9.8 mg/dL | POTASSIUM [3]: 5.86 MEQ/L | SODIUM [3]: 147.15 MEQ/L | TOTAL BILIRUBIN [3]: 0.2 mg/dL | TOTAL PROTEIN [3]: 5.6 G/DL | URIC ACID [3]: 0.47 mg/dL | ABSOLUTE BASOPHIL [4]: 0 CELLS/uL | ABSOLUTE EOSINOPHIL [4]: 0 CELLS/uL | ABSOLUTE LYMPHOCYTE [4]: 3763.67 CELLS/uL | ABSOLUTE MONOCYTE [4]: 27 CELLS/uL | ABSOLUTE SEGMENTED NEUTROPHIL [4]: 142.67 CELLS/uL | BASOPHIL [4]: 0% | EOSINOPHIL [4]: 0% | ERYTHROCYTE COUNT [4]: 5.76 x10E6/uL | HEMATOCRIT [4]: 35.3% | HEMOGLOBIN [4]: 13.53 G/DL | LEUKOCYTE COUNT [4]: 3.93 x10E3/uL | LYMPHOCYTE [4]: 95.67% | MEAN CORPUSCULAR HEMOGLOBIN [4]: 23.5 pg | MEAN CORPUSCULAR HEMOGLOBIN CONCENTRATION [4]: 38.33 G/DL | MEAN CORPUSCULAR VOLUME [4]: 61.27 fL | MONOCYTE [4]: 0.67% | NEUTROPHIL [4]: 3.67% | NUCLEATED RED BLOOD CELLS [4]: 0 /100WBC | PLATELET COUNT [4]: 1079.33 x10E3/uL | ALANINE AMINOTRANSFERASE [4]: 65 u/L | ALBUMIN [4]: 4.4 G/DL | ALKALINE PHOSPHATASE [4]: 287.67 u/L | ASPARTATE AMINOTRANSFERASE [4]: 91.67 u/L | BLOOD UREA NITROGEN [4]: 10 mg/dL | CARBON DIOXIDE [4]: 27.67 mmol/L | CHLORIDE [4]: 101.33 MEQ/L | CHOLESTEROL [4]: 66.67 mg/dL | CREATINE PHOSPHOKINASE [4]: 256.67 u/L | CREATININE [4]: 0.22 mg/dL | GLUCOSE [4]: 159.33 mg/dL | LACTATE DEHYDROGENASE [4]: 67.33 u/L | LIPASE [4]: 10.67 u/L | PHOSPHORUS [4]: 8.57 mg/dL | POTASSIUM [4]: 5.14 MEQ/L | SODIUM [4]: 148.03 MEQ/L | TOTAL BILIRUBIN [4]: 0.13 mg/dL | TOTAL PROTEIN [4]: 6.3 G/DL | URIC ACID [4]: 0.57 mg/dL | ABSOLUTE BASOPHIL [5]: 0 CELLS/uL | ABSOLUTE EOSINOPHIL [5]: 0 CELLS/uL | BASOPHIL [5]: 0% | EOSINOPHIL [5]: 0% | TOTAL PROTEIN [5]: 11.13 G/DL | ABSOLUTE BASOPHIL [6]: 0 CELLS/uL | ABSOLUTE EOSINOPHIL [6]: 9 CELLS/uL | ABSOLUTE LYMPHOCYTE [6]: 2345.67 CELLS/uL | ABSOLUTE MONOCYTE [6]: 24.67 CELLS/uL | ABSOLUTE SEGMENTED NEUTROPHIL [6]: 87.33 CELLS/uL | BASOPHIL [6]: 0% | EOSINOPHIL [6]: 0.33% | ERYTHROCYTE COUNT [6]: 6.17 x10E6/uL | HEMATOCRIT [6]: 38.6% | HEMOGLOBIN [6]: 14.23 G/DL | LEUKOCYTE COUNT [6]: 2.47 x10E3/uL | LYMPHOCYTE [6]: 95% | MEAN CORPUSCULAR HEMOGLOBIN [6]: 23.1 pg | MEAN CORPUSCULAR HEMOGLOBIN CONCENTRATION [6]: 36.93 G/DL | MEAN CORPUSCULAR VOLUME [6]: 62.57 fL | MONOCYTE [6]: 1% | NEUTROPHIL [6]: 3.67% | NUCLEATED RED BLOOD CELLS [6]: 0 /100WBC | PLATELET COUNT [6]: 1131 x10E3/uL | ALANINE AMINOTRANSFERASE [6]: 102 u/L | ALBUMIN [6]: 3.93 G/DL | ALKALINE PHOSPHATASE [6]: 370.33 u/L | ASPARTATE AMINOTRANSFERASE [6]: 322 u/L | BLOOD UREA NITROGEN [6]: 8.33 mg/dL | CARBON DIOXIDE [6]: 27.67 mmol/L | CHLORIDE [6]: 98 MEQ/L | CHOLESTEROL [6]: 235 mg/dL | CREATINE PHOSPHOKINASE [6]: 236.67 u/L | CREATININE [6]: 0.21 mg/dL | GLUCOSE [6]: 146 mg/dL | LACTATE DEHYDROGENASE [6]: 165.33 u/L | LIPASE [6]: 12 u/L | PHOSPHORUS [6]: 9.6 mg/dL | POTASSIUM [6]: 5.3 MEQ/L | SODIUM [6]: 146.6 MEQ/L | TOTAL BILIRUBIN [6]: 1.73 mg/dL | TOTAL PROTEIN [6]: 6.4 G/DL | URIC ACID [6]: 0.6 mg/dL
